Results taken from PubChem BioAssay (NCI).
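Test compounds were applied to cells in 96-well plates for 48 hours at 5 doses. TGI: concentration producing complete growth inhibition.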

Assays:
Assay in all cases: NCI-60 cell line screen, 48 h
HCC-2998 colon = test system: HCC-2998 colon
A549 NSCLC = test system: A549 NSCLC
UACC-257 melanoma = test system: UACC-257 melanoma
MDA-MB-435 = test system: MDA-MB-435
NCI-H460 lung = test system: NCI-H460 lung
SW-620 colon = test system: SW-620 colon
SF-268 CNS = test system: SF-268 CNS
BT-549 breast = test system: BT-549 breast
HOP-62 NSCLC = test system: HOP-62 NSCLC
SF-539 CNS = test system: SF-539 CNS
SN12C renal = test system: SN12C renal
786-0 renal = test system: 786-0 renal
HCT-116 colon = test system: HCT-116 colon
SK-MEL-5 melanoma = test system: SK-MEL-5 melanoma
RXF 393 renal = test system: RXF 393 renal
NCI-H522 lung = test system: NCI-H522 lung
OVCAR-4 ovarian = test system: OVCAR-4 ovarian
U251 CNS = test system: U251 CNS
SNB-75 CNS = test system: SNB-75 CNS
T-47D breast = test system: T-47D breast
COLO 205 colon = test system: COLO 205 colon
DU-145 prostate = test system: DU-145 prostate
CAKI-1 renal = test system: CAKI-1 renal
MOLT-4 leukemia = test system: MOLT-4 leukemia
SF-295 CNS = test system: SF-295 CNS
UO-31 renal = test system: UO-31 renal
SK-MEL-28 melanoma = test system: SK-MEL-28 melanoma
NCI/ADR-RES ovarian = test system: NCI/ADR-RES ovarian
SNB-19 CNS = test system: SNB-19 CNS
TK-10 renal = test system: TK-10 renal
MCF7 breast = test system: MCF7 breast
SR leukemia = test system: SR leukemia
HOP-92 NSCLC = test system: HOP-92 NSCLC
MDA-MB-231 breast = test system: MDA-MB-231 breast
HT29 colon = test system: HT29 colon
OVCAR-8 ovarian = test system: OVCAR-8 ovarian
ACHN renal = test system: ACHN renal
MDA-N = test system: MDA-N
A498 renal = test system: A498 renal
NCI-H226 lung = test system: NCI-H226 lung
IGROV1 ovarian = test system: IGROV1 ovarian
UACC-62 melanoma = test system: UACC-62 melanoma
HCT-15 colon = test system: HCT-15 colon
OVCAR-5 ovarian = test system: OVCAR-5 ovarian
KM12 colon = test system: KM12 colon
NCI-H23 lung = test system: NCI-H23 lung
K-562 leukemia = test system: K-562 leukemia
MALME-3M melanoma = test system: MALME-3M melanoma
PC-3 prostate = test system: PC-3 prostate
OVCAR-3 ovarian = test system: OVCAR-3 ovarian
HS 578T breast = test system: HS 578T breast
CCRF-CEM leukemia = test system: CCRF-CEM leukemia
SK-OV-3 ovarian = test system: SK-OV-3 ovarian
EKVX NSCLC = test system: EKVX NSCLC
SK-MEL-2 melanoma = test system: SK-MEL-2 melanoma
LOX IMVI melanoma = test system: LOX IMVI melanoma
M14 melanoma = test system: M14 melanoma
RPMI-8226 leukemia = test system: RPMI-8226 leukemia
HL-60(TB) leukemia = test system: HL-60(TB) leukemia

For `O=C(CC(C(=O)c1cccs1)c1ccsc1)c1cccs1` (stereo unspecified), the TGI (HCC-2998 colon) was greater than 100 µM, the TGI (A549 NSCLC) was greater than 100 µM and the TGI (UACC-257 melanoma) was greater than 100 µM. The TGI (MDA-MB-435) was 92.4 µM, the TGI (NCI-H460 lung) was greater than 100 µM and the TGI (SW-620 colon) was greater than 100 µM. The TGI (SF-268 CNS) was greater than 100 µM, the TGI (BT-549 breast) was greater than 100 µM and the TGI (HOP-62 NSCLC) was greater than 100 µM. It also gave a TGI (SF-539 CNS) greater than 100 µM, a TGI (SN12C renal) greater than 100 µM and a TGI (786-0 renal) greater than 100 µM. The TGI (HCT-116 colon) was greater than 100 µM, the TGI (SK-MEL-5 melanoma) was greater than 100 µM and the TGI (RXF 393 renal) was greater than 100 µM. The TGI (NCI-H522 lung) was greater than 100 µM, the TGI (OVCAR-4 ovarian) was greater than 100 µM and the TGI (U251 CNS) was greater than 100 µM. For the same compound, the TGI (SNB-75 CNS) was greater than 100 µM, the TGI (T-47D breast) was greater than 100 µM and the TGI (COLO 205 colon) was greater than 100 µM. It also gave a TGI (DU-145 prostate) greater than 100 µM, a TGI (CAKI-1 renal) greater than 100 µM and a TGI (MOLT-4 leukemia) greater than 100 µM. It also gave a TGI (SF-295 CNS) greater than 100 µM, a TGI (UO-31 renal) greater than 100 µM and a TGI (SK-MEL-28 melanoma) greater than 100 µM. For the same compound, the TGI (NCI/ADR-RES ovarian) was greater than 100 µM, the TGI (SNB-19 CNS) was greater than 100 µM and the TGI (TK-10 renal) was greater than 100 µM. It also gave a TGI (MCF7 breast) greater than 100 µM, a TGI (SR leukemia) greater than 100 µM and a TGI (HOP-92 NSCLC) greater than 100 µM. The TGI (MDA-MB-231 breast) was greater than 100 µM, the TGI (HT29 colon) was greater than 100 µM and the TGI (OVCAR-8 ovarian) was greater than 100 µM. For the same compound, the TGI (ACHN renal) was greater than 100 µM, the TGI (MDA-N) was 80.5 µM and the TGI (A498 renal) was greater than 100 µM. The TGI (NCI-H226 lung) was greater than 100 µM, the TGI (IGROV1 ovarian) was greater than 100 µM and the TGI (UACC-62 melanoma) was greater than 100 µM. For the same compound, the TGI (HCT-15 colon) was greater than 100 µM, the TGI (OVCAR-5 ovarian) was greater than 100 µM and the TGI (KM12 colon) was greater than 100 µM. The TGI (NCI-H23 lung) was greater than 100 µM, the TGI (K-562 leukemia) was greater than 100 µM and the TGI (MALME-3M melanoma) was greater than 100 µM. The TGI (PC-3 prostate) was greater than 100 µM, the TGI (OVCAR-3 ovarian) was greater than 100 µM and the TGI (HS 578T breast) was greater than 100 µM. It also gave a TGI (CCRF-CEM leukemia) greater than 100 µM, a TGI (SK-OV-3 ovarian) greater than 100 µM and a TGI (EKVX NSCLC) of 76.8 µM.

`Cc1nc2sc3ccccc3n2c(=O)c1N=Nc1ccc(Br)cc1` showed a TGI (A549 NSCLC) greater than 100 µM, a TGI (UACC-257 melanoma) greater than 100 µM and a TGI (MDA-MB-435) greater than 100 µM. It also gave a TGI (SK-MEL-2 melanoma) greater than 100 µM, a TGI (NCI-H460 lung) greater than 100 µM and a TGI (LOX IMVI melanoma) greater than 100 µM. It also gave a TGI (SW-620 colon) greater than 100 µM, a TGI (SF-268 CNS) greater than 100 µM and a TGI (BT-549 breast) greater than 100 µM. For the same compound, the TGI (HOP-62 NSCLC) was greater than 100 µM, the TGI (SF-539 CNS) was greater than 100 µM and the TGI (SN12C renal) was greater than 100 µM. It also gave a TGI (786-0 renal) greater than 100 µM, a TGI (HCT-116 colon) greater than 100 µM and a TGI (SK-MEL-5 melanoma) greater than 100 µM. For the same compound, the TGI (RXF 393 renal) was greater than 100 µM, the TGI (NCI-H522 lung) was greater than 100 µM and the TGI (OVCAR-4 ovarian) was greater than 100 µM. For the same compound, the TGI (U251 CNS) was greater than 100 µM, the TGI (SNB-75 CNS) was greater than 100 µM and the TGI (T-47D breast) was greater than 100 µM. The TGI (COLO 205 colon) was greater than 100 µM, the TGI (M14 melanoma) was greater than 100 µM and the TGI (DU-145 prostate) was greater than 100 µM. The TGI (CAKI-1 renal) was greater than 100 µM, the TGI (MOLT-4 leukemia) was greater than 100 µM and the TGI (SF-295 CNS) was greater than 100 µM. It also gave a TGI (SK-MEL-28 melanoma) greater than 100 µM, a TGI (NCI/ADR-RES ovarian) greater than 100 µM and a TGI (SNB-19 CNS) greater than 100 µM. The TGI (TK-10 renal) was greater than 100 µM, the TGI (MCF7 breast) was greater than 100 µM and the TGI (SR leukemia) was greater than 100 µM. For the same compound, the TGI (HOP-92 NSCLC) was greater than 100 µM, the TGI (MDA-MB-231 breast) was greater than 100 µM and the TGI (HT29 colon) was greater than 100 µM. It also gave a TGI (RPMI-8226 leukemia) greater than 100 µM, a TGI (OVCAR-8 ovarian) greater than 100 µM and a TGI (ACHN renal) greater than 100 µM. For the same compound, the TGI (MDA-N) was greater than 100 µM, the TGI (A498 renal) was greater than 100 µM and the TGI (NCI-H226 lung) was greater than 100 µM. It also gave a TGI (HL-60(TB) leukemia) greater than 100 µM, a TGI (IGROV1 ovarian) greater than 100 µM and a TGI (UACC-62 melanoma) greater than 100 µM. For the same compound, the TGI (HCT-15 colon) was greater than 100 µM, the TGI (OVCAR-5 ovarian) was greater than 100 µM and the TGI (KM12 colon) was greater than 100 µM. It also gave a TGI (NCI-H23 lung) greater than 100 µM, a TGI (K-562 leukemia) greater than 100 µM and a TGI (MALME-3M melanoma) greater than 100 µM. The TGI (PC-3 prostate) was greater than 100 µM, the TGI (OVCAR-3 ovarian) was greater than 100 µM and the TGI (HS 578T breast) was greater than 100 µM. For the same compound, the TGI (CCRF-CEM leukemia) was greater than 100 µM, the TGI (SK-OV-3 ovarian) was greater than 100 µM and the TGI (EKVX NSCLC) was greater than 100 µM.
